The values that follow come from patent US20240327412A1, “FACTOR XIIA INHIBITORS” (KALVISTA PHARMACEUTICALS LIMITED, priority 2021, published 2024).

One test addresses T1, Human Factor XIIa (Homo sapiens, UniProt P00748).
T1 construct: Proteolytic cleavage of FXII to heavy and light chains of FXIIa dramatically increases catalytic activity; purchased Enzyme Research Laboratories
T1 sequence (P00748 373-615 limits assumed): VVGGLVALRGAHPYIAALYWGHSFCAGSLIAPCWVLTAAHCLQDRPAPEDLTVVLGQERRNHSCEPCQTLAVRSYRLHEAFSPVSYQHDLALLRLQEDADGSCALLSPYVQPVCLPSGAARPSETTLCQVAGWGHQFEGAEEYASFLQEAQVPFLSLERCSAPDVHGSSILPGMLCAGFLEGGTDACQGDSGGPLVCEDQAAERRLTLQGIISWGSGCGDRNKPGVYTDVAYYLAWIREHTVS
T1 sequence (P00748 20-372 partner limits assumed): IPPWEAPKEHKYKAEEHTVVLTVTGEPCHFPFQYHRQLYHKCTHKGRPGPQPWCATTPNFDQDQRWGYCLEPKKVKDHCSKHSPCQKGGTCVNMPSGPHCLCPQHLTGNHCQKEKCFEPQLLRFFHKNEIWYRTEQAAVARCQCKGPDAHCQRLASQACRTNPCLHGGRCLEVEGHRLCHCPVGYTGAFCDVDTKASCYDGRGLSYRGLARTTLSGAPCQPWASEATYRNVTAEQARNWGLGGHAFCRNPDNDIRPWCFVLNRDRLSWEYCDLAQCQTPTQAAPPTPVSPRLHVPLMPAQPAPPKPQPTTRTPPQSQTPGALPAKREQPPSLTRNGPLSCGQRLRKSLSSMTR
Put plainly: Determination of FXIIa inhibition (fluorogenic substrate H-DPro-Phe-Arg-AFC, IC50 assay). In kind it is biochemical. To be noted: substrate at Km concentration, 25° C.; category scale; read-out: Human FXII IC50 (nm). Summed up:
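At substrate Km and 25° C., the rate of AFC release from H-DPro-Phe-Arg-AFC by human Factor XIIa was followed for 5 min across compound concentrations. Inhibition was derived as percent of uninhibited rate, giving IC50.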

Another test addresses T2, Plasma Kallikrein (Homo sapiens, UniProt P03952).
T2 construct: FXIIa converts plasma prekallikrein (PK) to plasma kallikrein (PKa)
Put plainly: Related protease inhibition: Plasma Kallikrein (fluorogenic substrate at Km). In kind it is biochemical. The settings on record: class symbols per Table 18, read-out: IC50 (human PKal). Here is the method:
In vitro inhibition of related proteases was determined using an IC50 assay based on standard literature methods (see e.g. Shori et al., Biochem. Pharmacol., 1992, 43, 1209; Bouckaert et al., European Journal of Medicinal Chemistry 110 (2016) 181). Human serine protease enzyme Plasma Kallikrein, KLK1, FXa, Plasmin, Thrombin and Trypsin were assayed for enzymatic activity using an appropriate fluorogenic substrate at Km concentration, FXIa at fixed substrate concentration of 100 μM and various concentrations of the test compound. Protease activity was measured by monitoring the accumulation of liberated fluorescence from the substrate over 5 min at 25° C. The linear rate of fluorescence increase per minute was expressed as percentage (%) activity. IC50 values were calculated as the concentration of inhibitor giving 50% inhibition of the uninhibited enzyme activity (100%).

T2 sequence (P03952 391-638 limits assumed): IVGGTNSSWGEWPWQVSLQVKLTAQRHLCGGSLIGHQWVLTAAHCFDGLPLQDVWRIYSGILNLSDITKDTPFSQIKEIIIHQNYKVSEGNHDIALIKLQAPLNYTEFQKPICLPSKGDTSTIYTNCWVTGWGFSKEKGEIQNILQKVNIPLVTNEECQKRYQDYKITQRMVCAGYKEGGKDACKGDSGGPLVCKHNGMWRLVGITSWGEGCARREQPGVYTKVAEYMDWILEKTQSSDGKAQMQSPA
T2 sequence (P03952 20-390 partner limits assumed): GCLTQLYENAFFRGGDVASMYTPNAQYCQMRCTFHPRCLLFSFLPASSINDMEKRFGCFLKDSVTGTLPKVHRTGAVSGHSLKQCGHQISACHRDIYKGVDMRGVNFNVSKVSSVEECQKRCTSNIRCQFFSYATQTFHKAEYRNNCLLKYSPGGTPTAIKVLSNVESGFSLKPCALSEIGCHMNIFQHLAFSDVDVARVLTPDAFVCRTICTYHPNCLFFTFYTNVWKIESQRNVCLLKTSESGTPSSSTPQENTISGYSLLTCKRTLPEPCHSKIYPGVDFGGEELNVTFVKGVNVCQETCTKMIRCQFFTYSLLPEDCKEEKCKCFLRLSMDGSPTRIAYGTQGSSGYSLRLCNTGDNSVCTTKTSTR

As a reminder, the IC50 is the concentration that gives 50% inhibition. As to `Nc1nccc2c(NCC34CC(Cn5ccn6ccc(=O)cc56)(C3)C4)cccc12` [Example 1127, 1-((3-(((1-aminoisoquinolin-5-yl)amino)methyl)bicyclo[1.1.1]pentan-1-yl)methyl)imidazo[1,2-a]pyridin-7(1H)-one], the concentration for half-maximal inhibition (IC50) is 3 to 10 µM at Human Factor XIIa and over 40 µM on Plasma Kallikrein.
On to `Nc1nccc2c(NCC34CC(COC5CCc6nccn6C5)(CO3)C4)cccc12` (stereo not drawn) [Example 6610, N5-((4-(((5,6,7,8-tetrahydroimidazo[1,2-a]pyridin-6-yl)oxy)methyl)-2-oxabicyclo[2.1.1]hexan-1-yl)methyl)isoquinoline-1,5-diamine], for which the IC50 at Human Factor XIIa is 0.3 to 1 µM; on Plasma Kallikrein it was over 40 µM.
As to `Nc1nccc2c(N3CC4(CCC4OCc4ccn5ccnc5c4)C3)cccc12` (single isomer, unassigned) [Example 9002, (R*)-5-(5-(imidazo[1,2-a]pyridin-7-ylmethoxy)-2-azaspiro[3.3]heptan-2-yl)isoquinolin-1-amine], the IC50 was 10 to 40 µM on Human Factor XIIa and over 40 µM on Plasma Kallikrein.
For the compound `CC(C)N1C[C@@H]2C[C@H]1CN2CC12CC(CNc3cccc4c(N)nccc34)(C1)C2` [Example 1005.1, N5-((3-(((1S,4S)-5-Isopropyl-2,5-diazabicyclo[2.2.1]heptan-2-yl)methyl)bicyclo[1.1.1]pentan-1-yl)methyl)isoquinoline-1,5-diamine], the IC50 at Human Factor XIIa is 0.3 to 1 µM; at Plasma Kallikrein it was over 40 µM.
With `Nc1nccc2c(NCC34CC(COc5cccn6ccnc56)(C3)C4)cccc12` [Example 1018, 5-N-[[3-(Imidazo[1,2-a]pyridin-8-yloxymethyl)-1-bicyclo[1.1.1]pentanyl]methyl]isoquinoline-1,5-diamine], the IC50 on Human Factor XIIa is 0.3 to 1 µM; at Plasma Kallikrein it was over 40 µM.
On the same counts, the results for `Nc1nccc2c(NCC34CC(COc5ccc6c(c5)NC(=O)C6)(C3)C4)cccc12` [Example 1113, 6-((3-(((1-aminoisoquinolin-5-yl)amino)methyl)bicyclo[1.1.1]pentan-1-yl)methoxy)indolin-2-one] are 1 to 3 µM and over 40 µM.
On the same counts, the results for `CC1(C)OC2(CNc3cccc4c(N)nccc34)CC1(COc1ccc3nccn3c1)C2` [Example 7703, N5-((4-((imidazo[1,2-a]pyridin-6-yloxy)methyl)-3,3-dimethyl-2-oxabicyclo[2.1.1]hexan-1-yl)methyl)isoquinoline-1,5-diamine] are 0.1 to 0.3 µM and over 40 µM.
In the case of `Clc1cc2c(NCC34CC(COC5CCn6ccnc6C5)(C3)C4)ccnc2[nH]1` (stereo not drawn) [Example 1130, 2-Chloro-N-[[3-(5,6,7,8-tetrahydroimidazo[1,2-a]pyridin-7-yloxymethyl)-1-bicyclo[1.1.1]pentanyl]methyl]-1H-pyrrolo[2,3-b]pyridin-4-amine], the concentration for half-maximal inhibition (IC50) at Human Factor XIIa is 0.3 to 1 µM; on Plasma Kallikrein, over 40 µM.
On the same counts, the results for `Nc1nccc2c(OCC34CC(COc5ccn6ccnc6c5)(C3)C4)cccc12` [Example 1013, 5-[[3-(Imidazo[1,2-a]pyridin-7-yloxymethyl)-1-bicyclo[1.1.1]pentanyl]methoxy]isoquinolin-1-amine] are 0.3 to 1 µM and over 40 µM.
On to `Nc1nccc2c(NCC34CC(Cn5ccccc5=O)(CCO3)C4)cccc12` [Example 10915, 1-((1-(((1-aminoisoquinolin-5-yl)amino)methyl)-2-oxabicyclo[3.1.1]heptan-5-yl)methyl)pyridin-2(1H)-one], for which the IC50 was 10 to 40 µM at Human Factor XIIa and over 40 µM at Plasma Kallikrein.
On the same counts, the results for `Nc1nccc2c(NCC34CC(COC5CCc6nccn6C5)(CCO3)C4)cccc12` (stereo not drawn) [Example 10908, N5-((5-(((5,6,7,8-tetrahydroimidazo[1,2-a]pyridin-6-yl)oxy)methyl)-2-oxabicyclo[3.1.1]heptan-1-yl)methyl)isoquinoline-1,5-diamine] are 0.3 to 1 µM and over 40 µM.
On the same counts, the results for `Nc1nccc2c(OCC34CC(C(=O)N5CCn6ccnc6C5)(C3)C4)cccc12` [Example 1015, [3-[(1-aminoisoquinolin-5-yl)oxymethyl]-1-bicyclo[1.1.1]pentanyl]-(6,8-dihydro-5H-imidazo [1,2-a]pyrazin-7-yl)methanone] are 10 to 40 µM and over 40 µM.
On the same counts, the results for `Nc1nccc2c(N3CC4(CC(COc5ccc6nccn6c5)C4)C3)cccc12` [Example 8808, 5-(6-((imidazo[1,2-a]pyridin-6-yloxy)methyl)-2-azaspiro[3.3]heptan-2-yl)isoquinolin-1-amine] are 10 to 40 µM and over 40 µM.
With `Nc1nccc2c(NCC34CC(COC5CCn6ccnc6C5)(C3)C4)cccc12` (single isomer, unassigned) [Example 1002.2, (R*)-N5-((3-(((5,6,7,8-tetrahydroimidazo[1,2-a]pyridin-7-yl)oxy)methyl)bicyclo[1.1.1]pentan-1-yl)methyl)isoquinoline-1,5-diamine], the figures for the IC50 on Human Factor XIIa and on Plasma Kallikrein were 0.3 to 1 µM and over 40 µM, respectively.
For the compound `Nc1nccc2c(CCC34CC(COc5ccn6ccnc6c5)(C3)C4)cccc12` [Example 1014, 5-[2-[3-(Imidazo[1,2-a]pyridin-7-yloxymethyl)-1-bicyclo[1.1.1]pentanyl]ethyl]isoquinolin-1-amine], the IC50 at Human Factor XIIa was 1 to 3 µM; on Plasma Kallikrein, over 40 µM.
On the same counts, the results for `Nc1nccc2c(NCC34CC(COc5ccc6cn[nH]c6c5)(C3)C4)cccc12` [Example 1125, N5-((3-(((1H-indazol-6-yl)oxy)methyl)bicyclo[1.1.1]pentan-1-yl)methyl)isoquinoline-1,5-diamine] are 10 to 40 µM and over 40 µM.
On the same counts, the results for `Nc1nccc2c(N3CC4(CC(OCc5ccn6ccnc6c5)C4)C3)cccc12` [Example 8801, 5-(6-(imidazo[1,2-a]pyridin-7-ylmethoxy)-2-azaspiro[3.3]heptan-2-yl)isoquinolin-1-amine] are 10 to 40 µM and over 40 µM.
On the same counts, the results for `Clc1cc2c(NCC34CC(COc5ccn6ccnc6c5)(CO3)C4)ccnc2[nH]1` [Example 6606, 2-chloro-N-((4-((imidazo[1,2-a]pyridin-7-yloxy)methyl)-2-oxabicyclo[2.1.1]hexan-1-yl)methyl)-1H-pyrrolo[2,3-b]pyridin-4-amine] are 1 to 3 µM and over 40 µM.
`Clc1cc2c(NCC34CC(COc5ccc6nccn6c5)(CO3)C4)ccnc2[nH]1` [Example 6611, 2-chloro-N-((4-((imidazo[1,2-a]pyridin-6-yloxy)methyl)-2-oxabicyclo[2.1.1]hexan-1-yl)methyl)-1H-pyrrolo[2,3-b]pyridin-4-amine]: the values for the IC50 on Human Factor XIIa and at Plasma Kallikrein were 1 to 3 µM and over 40 µM, respectively.
On the same counts, the results for `Nc1nccc2c(N3CCC4(CC(OCc5ccn6ccnc6c5)C4)C3)cccc12` (stereo not drawn) [Example 8805, 5-(trans*-2-(imidazo[1,2-a]pyridin-7-ylmethoxy)-6-azaspiro[3.4]octan-6-yl)isoquinolin-1-amine] are 1 to 3 µM and over 40 µM.
On the same counts, the results for `Nc1nccc2c(NCC34CC(COc5ccc6nnc(C(F)F)n6n5)(CCO3)C4)cccc12` [Example 10910, N5-((5-(((3-(difluoromethyl)-[1,2,4]triazolo[4,3-b]pyridazin-6-yl)oxy)methyl)-2-oxabicyclo[3.1.1]heptan-1-yl)methyl)isoquinoline-1,5-diamine] are 0.1 to 0.3 µM and over 40 µM.
